US20160051526A1, “The Local Treatment of Inflammatory Ophthalmic Disorders” (CRESSET BIOMOLECULAR DISCOVERY LTD, priority 2013, published 2016)

Legend:
[1] = system: Human cord derived mast cells; assay: Release of Annexin-A1 from human mast cells (ELISA); type: cell-based; conditions: increasing concentrations, conditioned medium, FIG. 3
Description: Human cord derived mast cells were cultured using the methodology described in Example 1. Anx-A1 protein levels in conditioned medium were determined by ELISA. Briefly, 96-well flat-bottomed ELISA plates (Greiner, Gloucestershire, UK) were coated with 1 μg anti-Anx-A1 mAb 1B in bicarbonate buffer (pH 9.6) and incubated overnight at 4° C. After washing in the bicarbonate buffer, potentially uncoated sites were blocked with 100 μL of PBS containing 1% BSA for 1 h at room temperature. Sample aliquots (100 μL) or Anx-A1 standard solutions (prepared in 0.1% Tween-20 in PBS; concentration ranging between 10 and 0.001 μg/mL) were added for 1 h at 37° C. After extensive washing in PBS/Tween-20, 100 μL of a polyclonal rabbit anti-human Anx-A1 serum (Zymed, Invitrogen, Paisley, UK; diluted 1:1000 in PBS/Tween-20) was added (1 h at 37° C.) prior to incubation with donkey anti-rabbit 1 gG conjugated to alkaline phosphatase (1:1000; Sigma). The colour was developed by addition of 100 μL p-nitrophenyl phosphate (1 mg/mL in bicarbonate buffer, pH 9.6). Absorbance was read at 405 nm (with a 620-nm reference filter) in a microplate reader (TitertekTM, Vienna, Austria). Anx-A1 levels in the study samples were read against the standard curve and expressed as ng/ml.

[2] = system: Human derived cord mast cells; assay: Inhibition of histamine release from human mast cells; type: cell-based; conditions: IgE challenged human cord derived mast cells, 5 min incubation; FIG. 1
Description: Protocol: Human derived cord mast cells were cultured using the following method. Commercially available CD34^+ stem cells were cultured for […] in StemSpan (StemCell Technologies, Grenoble, France) serum-free medium supplemented with 100 ng/ml human SCF, 50 ng/ml IL-6 and 1 ng/ml IL-3, and 100 μg/ml penicillin/streptomycin (Peprotech, London, UK). After eight weeks, cells were cultured in StemSpan with 10% FCS. The cells were passaged into new medium every week. Cells were used for experiments between 11 and 18 weeks following confirmation by microscopic examination, c-kit and FcRε1 staining (by FACS), of mast cell morphology. For assessment of drug effects, Nalidixic acid was incubated for 5 min with aliquots of 2×10^5 CDMCs (cord derived mast cells) cultured in 10% FCS medium. A commercially-available enzyme immunoassay was used to detect and quantify histamine released in the supernatant (SPI bio, Strasbourg, France). The assay was conducted following the manufacturer's standard protocols. A standard curve ranging from 0.39-50 nM histamine was prepared using the reagent provided and the optical density was then read within 60 min in a microplate reader (at 405 nm). In some cases, the total cell content of histamine was established by freeze thawing of cells prior to challenge.

[3] = system: Human cord derived mast cells; assay: Inhibition of Prostaglandin D2 release from human mast cells; type: cell-based; conditions: IgE challenged human cord derived mast cells; FIG. 2
Description: Human cord derived mast cells were cultured using the methodology described in Example 1. A commercially-available enzyme immunoassay (Cayman Chemical, Michigan, USA) was used to detect and quantify PGD2 released in the supernatant. The assay was conducted following the manufacturer's standard protocols. A standard curve ranging from 78-10,000 pg/ml PGD2 was prepared using the reagent provided and the optical density was then read within 60 min in a microplate reader (at 405 nm).

male C57BL/6 mice = assay: Murine model of endotoxin induced uveitis; type: in vivo, mouse; conditions: 0.1 μg intravitreal co-injected with LPS; about 15 hours after endotoxin; FIG. 5
Description: The efficacy of locally applied Nalidixic acid as a potential treatment for uveitis was explored. Experimental uveitis was induced in male C57BL/6 mice (n=5 animals per group) by the intravitreal injection of the endotoxin lipopolysaccharide (LPS 0.5 ng/ml) co-injected with either vehicle (phosphate buffered saline) or Nalidixic acid at a final concentration of 0.1 μg into alternate eyes. The other eye acting as control. The inflammatory response in this model is characterised by invasion of inflammatory cells and in particular invasion of neutrophils into the retina peaks at approximately 15 hours after endotoxin treatment at which time the animals were culled. Retinas from the animals were dissected and digested into a single cell suspension. Cell numbers from retinal tissue were measured by fluorescence-activated cell sorting (FACS) analysis.

phosphatase PP2A = assay: Inhibition of the phosphatase PP2A; type: biochemical; conditions: statement in summary, no method or data given
Mice (Balb/C strain) = assay: Murine model of allergic conjunctivitis (ragweed pollen); type: in vivo, mouse; conditions: 40 μl of a 2% solution twice daily to the eye
Description: Mice (Balb/C strain) were sensitised to ragweed pollen by injection of the extract mixed with alum into the hind paw. A control group was immunised with alum alone. Five animals were used in each group.
Eleven days after the initial immunisation with ragweed pollen extract the mice were challenged daily with Ragweed pollen by application to the eye (150 mg/ml antigen) and dosed twice daily (prior and after challenge with ragweed extract) with either Phosphate buffered saline (PBS, control) or 40 μl of a 2% solution of Nalidixic acid. All applications were to the left eye with the right eye acting as a control.
Conjunctivitis was assessed on the 10th day 1 hour after the final application of the ragweed antigen. This assessment was performed by an operator unaware of the dosing protocol for the animals.
Clinical scores of each group were compared statistically using the non-parametric Kruskal-Wallis test with Dunns multiple comparison test correction applied (FIG. 4).
In addition, histological analysis of sections of the conjunctiva was used to assess the number of migrating eosinophils into the tissue, a key measure of the inflammatory process.

CCn1cc(C(=O)O)c(=O)c2ccc(C)nc21 [Nalidixic acid]
Annexin-A1 released from human mast cells [1]: increase | inhibition of the inflammatory mediator histamine (% net histamine release) [2]: dose related inhibition | inhibition of the inflammatory prostanoid PGD2 release [3]: dose related inhibition | invading neutrophils in retinal tissue (FACS) (male C57BL/6 mice): clear reduction in invading neutrophils | inhibition of the phosphatase PP2A (phosphatase PP2A): potent inhibitors | clinical scores of conjunctivitis (Mice (Balb/C strain); assessed 10th day, 1 hour after final ragweed challenge, FIG. 4): significant attenuation of the development of conjunctivitis | number of migrating eosinophils in conjunctival tissue (histology) (Mice (Balb/C strain); p<0.001 vs immunised PBS control): no migrating eosinophils
